Drawing on US20220073536A1 (Rigel Pharmaceuticals, Inc., priority 2003, published 2022), this text covers IC50 for 33 compounds.

The structures appear in SMILES notation. Some results are limits rather than exact numbers.

Assay [1] relates to cultured human mast cells (CHMC). The assay is described as follows: CHMC low cell density ionomycin activation: tryptase assay. The class given is cell-based. The settings on record: low cell density CHMC, tryptase, 3 pt, read-out: LD Tryptase, CHMC, Iono, 3 pt.
The test system is the same in assay [2]. Description: CHMC low cell density IgE activation: tryptase assay. The class given is cell-based. The settings on record: low cell density CHMC, IgE activation, tryptase. In short, it runs like this:
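Low-density CHMC, 1000-1500 cells/well in MT; 1 hr 37 °C; anti-IgE challenge 30 min 37 °C; supernatant tryptase via fluorogenic substrate, 30 min RT.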

Where [3] appears, read: Homo sapiens, Mast cell, 3 pt, read-out: LD Tryptase, CHMC, IgE, 3 pt.
Where [4] appears, read: Homo sapiens, Mast cell, 8 pt, read-out: LD Tryptase, CHMC, IgE, 8 pt.

As for `COc1cc(Nc2ncc(F)c(Nc3ccc4c(n3)NCCO4)n2)cc(OC)c1OC` [Compound 1145, N4-(3,4-Dihydro-2H,4H-5-pyrid[1,4]oxazin-6-yl)-5-fluoro-N2-(3,4,5-trimethoxyphenyl)-2,4-pyrimidinediamine], the IC50 in assay [1] (Homo sapiens, Mast cell) was over 10 µM; in assay [2] (setting [3]), under 10 µM; in assay [2] (setting [4]) it was under 10 µM.

Regarding `COc1ccc(Nc2ncc(F)c(Nc3ccc4c(n3)NCCO4)n2)cc1Cl` [Compound 1146, N2-(3-Chloro-4-methoxyphenyl)-N4-(3,4-dihydro-2H,4H-5-pyrid[1,4]oxazin-6-yl)-5-fluoro-2,4-pyrimidinediamine], the IC50 is over 10 µM in assay [1] and under 10 µM in assay [2] (3 pt, read-out: LD Tryptase, CHMC, IgE, 3 pt).

As to `CCOC(=O)N1CCN(c2ccc(Nc3ncc(F)c(N(C)C4CCC4)n3)cc2)CC1` [Compound 1148, N4-Cyclobutyl-N2-[4-(4-ethoxycarbonylpiperazino)phenyl]-5-fluoro-N4-methyl-2,4-pyrimidinediamine], the IC50 in assay [1] (Homo sapiens, Mast cell) was over 10 µM; in assay [2] (setting [3]), under 10 µM; in assay [2] (setting [4]), under 10 µM.

On to `CN(c1nc(Nc2cccc(N3CCOCC3)c2)ncc1F)C1CCC1` [Compound 1149, N4-Cyclobutyl-5-fluoro-N4-methyl-N2-(3-morpholinophenyl)-2,4-pyrimidinediamine], for which the IC50 in assay [1] (Homo sapiens, Mast cell) was over 10 µM; in assay [2] (setting [3]), under 10 µM.

With `CC(=O)N1CCN(c2cccc(Nc3ncc(F)c(N(C)C4CCC4)n3)c2)CC1` [Compound 1150, N2-[3-(4-Acetylpiperazino)phenyl]-N4-cyclobutyl-5-fluoro-N4-methyl-2,4-pyrimidinediamine], the IC50 is over 10 µM in assay [1] (Homo sapiens, Mast cell) and under 10 µM in assay [2] (setting [3]).

Turning to `CN1CCN(c2cccc(Nc3ncc(F)c(N(C)C4CCC4)n3)c2)CC1` [Compound 1151, N4-Cyclobutyl-5-fluoro-N4-methyl-N2-[3-(4-methylpiperazino)phenyl]-2,4-pyrimidinediamine], the IC50 in assay [1] (Homo sapiens, Mast cell) is over 10 µM; in assay [2] (setting [3]), under 10 µM; in assay [2] (setting [4]) it was under 10 µM.

Regarding `CCOC(=O)N1CCN(c2cccc(Nc3ncc(F)c(N(C)C4CCC4)n3)c2)CC1` [Compound 1152, N4-Cyclobutyl-N2-[3-(4-ethoxycarbonylpiperazino)phenyl]-5-fluoro-N4-methyl-2,4-pyrimidinediamine], the IC50 in assay [1] (Homo sapiens, Mast cell) is over 10 µM; in assay [2] (setting [3]) it was under 10 µM.

Regarding `COc1cc(C(N)=O)c(Nc2ncc(F)c(N(C)C3CCC3)n2)cc1OCc1ccccc1` [Compound 1153, N2-(2-Aminocarbonyl-5-benzoxy-4-methoxyphenyl)-N4-cyclobutyl-5-fluoro-N4-methyl-2,4-pyrimidinediamine], the IC50 in assay [1] (Homo sapiens, Mast cell) is over 10 µM; in assay [2] (setting [3]), over 10 µM.

`O=C(Nc1ccc(Nc2ncc(F)c(NC3CCC3)n2)cc1)c1ccccc1` [Compound 1154, N2-(4-Benzamidophenyl)-N4-cyclobutyl-5-fluoro-2,4-pyrimidinediamine]: the IC50 in assay [1] (Homo sapiens, Mast cell) was over 10 µM; in assay [2] (setting [3]) it was under 10 µM.

Regarding `Fc1cnc(Nc2ccc(N3CCOCC3)cc2)nc1NC1CCCC1` [Compound 1155, N4-Cyclopentyl-5-fluoro-N2-(4-morpholinophenyl)-2,4-pyrimidinediamine], the IC50 in assay [1] (Homo sapiens, Mast cell) was over 10 µM; in assay [2] (setting [3]), under 10 µM.

For `CC(=O)N1CCN(c2ccc(Nc3ncc(F)c(NC4CCCC4)n3)cc2)CC1` [Compound 1156, N2-[4-(4-Acetylpiperazino)phenyl]-N4-cyclopentyl-5-fluoro-2,4-pyrimidinediamine], the IC50 in assay [1] (Homo sapiens, Mast cell) is over 10 µM; in assay [2] (setting [3]) it was under 10 µM.

In the case of `CN1CCN(c2ccc(Nc3ncc(F)c(NC4CCCC4)n3)cc2)CC1` [Compound 1157, N4-Cyclopentyl-5-fluoro-N2-[4-(4-methylpiperazino)phenyl]-2,4-pyrimidinediamine], the IC50 in assay [1] (Homo sapiens, Mast cell) was over 10 µM; in assay [2] (setting [3]) it was under 10 µM.

With `Fc1cnc(Nc2cccc(N3CCOCC3)c2)nc1NC1CCCC1` [Compound 1158, N4-Cyclopentyl-5-fluoro-N2-(3-morpholinophenyl)-2,4-pyrimidinediamine], the IC50 is over 10 µM in assay [1] (Homo sapiens, Mast cell) and under 10 µM in assay [2] (setting [3]).

As for `CC(=O)N1CCN(c2cccc(Nc3ncc(F)c(NC4CCCC4)n3)c2)CC1` [Compound 1159, N2-[3-(4-Acetylpiperazino)phenyl]-N4-cyclopentyl-5-fluoro-2,4-pyrimidinediamine], the IC50 in assay [1] (Homo sapiens, Mast cell) is over 10 µM; in assay [2] (setting [3]) it was under 10 µM.

For `CN1CCN(c2cccc(Nc3ncc(F)c(NC4CCCC4)n3)c2)CC1` [Compound 1160], the IC50 in assay [1] (Homo sapiens, Mast cell) was over 10 µM; in assay [2] (setting [3]), under 10 µM.

As to `CCOC(=O)N1CCN(c2cccc(Nc3ncc(F)c(NC4CCCC4)n3)c2)CC1` [Compound 1161], the IC50 in assay [1] (Homo sapiens, Mast cell) is over 10 µM; in assay [2] (setting [3]), under 10 µM.

Turning to `Fc1cnc(Nc2ccc(N3CCOCC3)cc2)nc1NC1CCCCC1` [Compound 1162, N4-Cyclohexyl-5-fluoro-N2-(4-morpholinophenyl)-2,4-pyrimidinediamine], the IC50 in assay [1] (Homo sapiens, Mast cell) is over 10 µM; in assay [2] (setting [3]), under 10 µM.

Consider `CC(=O)N1CCN(c2ccc(Nc3ncc(F)c(NC4CCCCC4)n3)cc2)CC1` [Compound 1163, N2-[4-(4-Acetylpiperazino)phenyl]-N4-cyclohexyl-5-fluoro-2,4-pyrimidinediamine], for which the IC50 in assay [1] (Homo sapiens, Mast cell) was over 10 µM; in assay [2] (setting [3]), under 10 µM.

Regarding `CCOC(=O)N1CCN(c2ccc(Nc3ncc(F)c(NC4CCCCC4)n3)cc2)CC1` [Compound 1165, N4-Cyclohexyl-N2-[4-(4-ethoxycarbonylpiperazino)phenyl]-5-fluoro-2,4-pyrimidinediamine], the IC50 was under 10 µM in assay [1] (Homo sapiens, Mast cell) and under 10 µM in assay [2] (setting [3]).

For the compound `Fc1cnc(Nc2cccc(N3CCOCC3)c2)nc1NC1CCCCC1` [Compound 1166, N4-Cyclohexyl-5-fluoro-N2-(3-morpholinophenyl)-2,4-pyrimidinediamine], the IC50 is over 10 µM in assay [1] (Homo sapiens, Mast cell) and under 10 µM in assay [2] (setting [3]).

Regarding `CC(=O)N1CCN(c2cccc(Nc3ncc(F)c(NC4CCCCC4)n3)c2)CC1` [Compound 1167, N2-[3-(4-Acetylpiperazino)phenyl]-N4-cyclohexyl-5-fluoro-2,4-pyrimidinediamine], the IC50 was over 10 µM in assay [1] (Homo sapiens, Mast cell) and under 10 µM in assay [2] (setting [3]).

As to `CN1CCN(c2cccc(Nc3ncc(F)c(NC4CCCCC4)n3)c2)CC1` [Compound 1168, N4-Cyclohexyl-5-fluoro-N2-[3-(4-methylpiperazino)phenyl]-2,4-pyrimidinediamine], the IC50 in assay [1] (Homo sapiens, Mast cell) is over 10 µM; in assay [2] (setting [3]), under 10 µM.

Consider `CCOC(=O)N1CCN(c2cccc(Nc3ncc(F)c(NC4CCCCC4)n3)c2)CC1` [Compound 1169, N4-Cyclohexyl-N2-[3-(4-ethoxycarbonylpiperazino)phenyl]-5-fluoro-2,4-pyrimidinediamine], for which the IC50 in assay [1] (Homo sapiens, Mast cell) was over 10 µM; in assay [2] (setting [3]), under 10 µM.

Consider `O=C(Nc1ccc(Nc2ncc(F)c(NC3CCCC3)n2)cc1)c1ccccc1` [Compound 1170, N2-(4-Benzamidophenyl)-N4-cyclopentyl-5-fluoro-2,4-pyrimidinediamine], for which the IC50 in assay [1] (Homo sapiens, Mast cell) was over 10 µM; in assay [2] (setting [3]), under 10 µM.

For `COc1cc(C(N)=O)c(Nc2ncc(F)c(NC3CCCC3)n2)cc1OCc1ccccc1` [Compound 1171, N2-(2-Aminocarbonyl-5-benzoxy-4-methoxyphenyl)-N4-cyclopentyl-5-fluoro-2,4-pyrimidinediamine], the IC50 is over 10 µM in assay [1] (Homo sapiens, Mast cell) and under 10 µM in assay [2] (setting [3]).

As for `CC(=O)N(C)c1ccc(Nc2ncc(F)c(NC3CCCC3)n2)cc1` [Compound 1172, N2-[4-(N-Acetyl-N-methylamino)phenyl]-N4-cyclopentyl-5-fluoro-2,4-pyrimidinediamine], the IC50 in assay [1] (Homo sapiens, Mast cell) is over 10 µM; in assay [2] (setting [3]), under 10 µM.

Turning to `Fc1cnc(Nc2cccc(NC3=NCCN3)c2)nc1NC1CCCC1` [Compound 1173, N4-Cyclopentyl-5-fluoro-N2-[3-(N-2-imidazolin-2-yl)aminophenyl]-2,4-pyrimidinediamine], the IC50 is over 10 µM in assay [1] (Homo sapiens, Mast cell) and over 10 µM in assay [2] (setting [3]).

On to `COc1cc(C(N)=O)c(Nc2ncc(F)c(NC3CCCCC3)n2)cc1OCc1ccccc1` [Compound 1175, N2-(2-Aminocarbonyl-5-benzoxy-4-methoxyphenyl)-N4-cyclohexyl-5-fluoro-2,4-pyrimidinediamine], for which the IC50 in assay [1] (Homo sapiens, Mast cell) was over 10 µM; in assay [2] (setting [3]), under 10 µM.

With `CC(=O)N(C)c1ccc(Nc2ncc(F)c(NC3CCCCC3)n2)cc1` [Compound 1176, N2-[4-(N-Acetyl-N-methylamino)phenyl]-N4-cyclohexyl-5-fluoro-2,4-pyrimidinediamine], the IC50 was over 10 µM in assay [1] (Homo sapiens, Mast cell) and under 10 µM in assay [2] (setting [3]).

Consider `Fc1cnc(Nc2cccc(NC3=NCCN3)c2)nc1NC1CCCCC1` [Compound 1177], for which the IC50 was over 10 µM in assay [1] (Homo sapiens, Mast cell) and over 10 µM in assay [2] (setting [3]).

Regarding `Fc1cnc(Nc2cccc(-c3ncco3)c2)nc1Nc1cccc(-c2ncco2)c1` [Compound 1178, N2,N4-Bis[3-(oxazol-2-yl)phenyl]-5-fluoro-2,4-pyrimidinediamine], the IC50 is over 10 µM in assay [1] (Homo sapiens, Mast cell) and over 10 µM in assay [2] (setting [3]).

Take `CN(c1nc(Nc2cccc(-c3ncco3)c2)ncc1F)C1CCC1` [Compound 1179, N4-Cyclobutyl-5-fluoro-N4-methyl-N2-[3-(oxazol-2-yl)phenyl]-2,4-pyrimidinediamine]: the IC50 in assay [1] (Homo sapiens, Mast cell) is over 10 µM; in assay [2] (setting [3]), under 10 µM.

As to `Fc1cnc(Nc2ccc(N3CCOCC3)cc2)nc1N[C@H]1CCN(Cc2ccccc2)C1` [Compound 1180, (S)-N4-(1 -Benzylpyrrolidin-3-yl)-5-fluoro-N2-(4-morpholinophenyl)-2,4-pyrimidinediamine], the IC50 was over 10 µM in assay [1] (Homo sapiens, Mast cell) and under 10 µM in assay [2] (setting [3]).
